This note sets out measurements from patent US9018208B2, “Heterocycles as potassium channel modulators” (Icagen Inc., priority 2007, dated 2015).

The subject of the assay is SH-SY5Y M-currents (KCNQ2, KCNQ3 and KCNQ5). In words: SH-SY5Y native cell line FLIPR assay (voltage-sensitive dye DiBAC). The format is cell-based, mouse neuroblastoma, rat glioma hybrid cell line. Conditions: FLIPR assay, SH-SY5Y native cell line; Table 2; read-out: SH-SY5Y EC50. The method, boiled down:
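Response is peak DiBAC fluorescence change, normalised to the maximum from a positive control agent, sampled every 30 s over 25 min. Before compound addition, SH-SY5Y cells differentiated with PGE1 plus isomethylbutylxanthine were dye-loaded for 1 h in EBSS with […] DiBAC.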
As for `CC(C)(C)CC(=O)Nc1nc2cc(C(F)(F)F)ccn2c1-c1ccc(F)cc1` [Compound 113, N-(3-(4-fluorophenyl)-7-(trifluoromethyl)imidazo[1,2-a]pyridin-2-yl)-3,3-dimethylbutanamide], the half-maximal effective concentration (EC50) lay within 500 to 3000 nM.

Take `CC(C(=O)Nc1nc2cc(C(F)(F)F)ccn2c1-c1ccc(F)cc1)c1ccccc1` (centres unmarked) [Compound 114, N-(3-(4-fluorophenyl)-7-(trifluoromethyl)imidazo[1,2-a]pyridin-2-yl)-2-phenylpropanamide]: the concentration for a half-maximal effect (EC50) was 500 to 3000 nM.

As for `O=C(Cc1ccccc1)Nc1nc2ccc(F)cn2c1-c1ccc(F)cc1F` [Compound 115, N-(3-(2,4-difluorophenyl)-6-fluoroimidazo[1,2-a]pyridin-2-yl)-2-phenylacetamide], the EC50 lay within 500 to 3000 nM.

Regarding `CC(C)(C)CC(=O)Nc1nc2ccc(F)cn2c1-c1ccc(F)cc1F` [Compound 116, N-(3-(2,4-difluorophenyl)-6-fluoroimidazo[1,2-a]pyridin-2-yl)-3,3-dimethylbutanamide], the EC50 fell in the range of 500 to 3000 nM.

Regarding `O=C(Cc1ccc(F)cc1)Nc1nc2ccc(F)cn2c1-c1ccc(F)cc1F` [Compound 117, N-(3-(2,4-difluorophenyl)-6-fluoroimidazo[1,2-a]pyridin-2-yl)-2-(4-fluorophenyl)acetamide], the EC50 fell in the range of 500 to 3000 nM.

As for `O=C(CC1CCCC1)Nc1nc2ccc(F)cn2c1-c1ccc(F)cc1F` [Compound 118, 2-cyclopentyl-N-(3-(2,4-difluorophenyl)-6-fluoroimidazo[1,2-a]pyridin-2-yl)acetamide], the 50% effective concentration (EC50) lay in the range of 500 to 3000 nM.

As for `O=C(Cc1ccccc1)Nc1nc2ccc(C(F)(F)F)cn2c1-c1ccc(F)cc1` [Compound 119, N-(3-(4-fluorophenyl)-6-(trifluoromethyl)imidazo[1,2-a]pyridin-2-yl)-2-phenylacetamide], the EC50 was less than 500 nM.

Consider `CC(C)(C)CC(=O)Nc1nc2ccc(C(F)(F)F)cn2c1-c1ccc(F)cc1` [Compound 120, N-(3-(4-fluorophenyl)-6-(trifluoromethyl)imidazo[1,2-a]pyridin-2-yl)-3,3-dimethylbutanamide], for which the EC50 was less than 500 nM.

With `O=C(Cc1ccc(F)cc1)Nc1nc2ccc(C(F)(F)F)cn2c1-c1ccc(F)cc1` [Compound 121, 2-(4-fluorophenyl)-N-(3-(4-fluorophenyl)-6-(trifluoromethyl)imidazo[1,2-a]pyridin-2-yl)acetamide], the EC50 is less than 500 nM.

Consider `O=C(Cc1ccc(F)cc1)Nc1nc2cc(C(F)(F)F)ccn2c1-c1ccc(F)cc1F` [Compound 122, N-(3-(2,4-difluorophenyl)-7-(trifluoromethyl)imidazo[1,2-a]pyridin-2-yl)-2-(4-fluorophenyl)acetamide], for which the EC50 lay within 500 to 3000 nM.

On to `CC(C)(C)CC(=O)Nc1nc2cc(C(F)(F)F)ccn2c1-c1ccc(F)cc1F` [Compound 123, N-(3-(2,4-difluorophenyl)-7-(trifluoromethyl)imidazo[1,2-a]pyridin-2-yl)-3,3-dimethylbutanamide], for which the EC50 lay within 500 to 3000 nM.

Turning to `O=C(Cc1ccccc1)Nc1nc2cc(C(F)(F)F)ccn2c1-c1ccc(F)cc1F` [Compound 124, N-(3-(2,4-difluorophenyl)-7-(trifluoromethyl)imidazo[1,2-a]pyridin-2-yl)-2-phenyl acetamide], the 50% effective concentration (EC50) lay in the range of 500 to 3000 nM.

Consider `O=C(CC1CCCC1)Nc1nc2cc(C(F)(F)F)ccn2c1-c1ccc(F)cc1F` [Compound 125, 2-cyclopentyl-N-(3-(2,4-difluorophenyl)-7-(trifluoromethyl)imidazo[1,2-a]pyridin-2-yl)acetamide], for which the EC50 was in the range of 500 to 3000 nM.

For the compound `O=C(Cc1ccc(F)cc1)Nc1nc2ccc(F)cn2c1-c1ccc(C(F)(F)F)cc1` [Compound 126, N-(6-fluoro-3-(4-(trifluoromethyl)phenyl)imidazo[1,2-a]pyridin-2-yl)-2-(4-fluorophenyl)acetamide], the concentration for a half-maximal effect (EC50) was in the range of 500 to 3000 nM.

For the compound `O=C(Cc1ccccc1)Nc1nc2ccc(F)cn2c1-c1ccc(C(F)(F)F)cc1` [Compound 127, N-(6-fluoro-3-(4-(trifluoromethyl)phenyl)imidazo[1,2-a]pyridin-2-yl)-2-phenylacetamide], the concentration giving a half-maximal response (EC50) was less than 500 nM.

In the case of `O=C(CC1CC1)Nc1nc2ccc(F)cn2c1-c1ccc(F)cc1` [Compound 129, 2-cyclopropyl-N-(6-fluoro-3-(4-fluorophenyl)imidazo[1,2-a]pyridin-2-yl)acetamide], the EC50 lay within 3000 to 10000 nM.

`CC(C)(C)CC(=O)Nc1nc2ccc(Cl)cn2c1-c1ccc(F)cc1` [Compound 130, N-(6-chloro-3-(4-fluorophenyl)imidazo[1,2-a]pyridin-2-yl)-3,3-dimethylbutanamide]: the EC50 is less than 500 nM.

`O=C(Cc1ccc(F)cc1)Nc1nc2ccc(Cl)cn2c1-c1ccc(F)cc1` [Compound 131, N-(6-chloro-3-(4-fluorophenyl)imidazo[1,2-a]pyridin-2-yl)-2-(4-fluorophenyl)acetamide]: the concentration giving a half-maximal response (EC50) is less than 500 nM.

With `COc1ccc(CC(=O)Nc2nc3ccc(F)cn3c2-c2ccc(F)cc2)cc1` [Compound 132, N-(6-fluoro-3-(4-fluorophenyl)imidazo[1,2-a]pyridin-2-yl)-2-(4-methoxyphenyl)acetamide], the 50% effective concentration (EC50) lay within 500 to 3000 nM.

With `CC(C)CC(=O)Nc1nc2ccc(F)cn2c1-c1ccc(F)cc1` [Compound 133, N-(6-fluoro-3-(4-fluorophenyl)imidazo[1,2-a]pyridin-2-yl)-3-methylbutanamide], the EC50 lay within 500 to 3000 nM.

`O=C(CCc1ccccc1)Nc1nc2ccc(F)cn2c1-c1ccc(F)cc1` [Compound 134, N-(6-fluoro-3-(4-fluorophenyl)imidazo[1,2-a]pyridin-2-yl)-3-phenylpropanamide]: the 50% effective concentration (EC50) is 500 to 3000 nM.

As for `O=C(Cc1ccc(C(F)(F)F)cc1)Nc1nc2ccc(F)cn2c1-c1ccc(F)cc1` [Compound 135, N-(6-fluoro-3-(4-fluorophenyl)imidazo[1,2-a]pyridin-2-yl)-2-(4-(trifluoromethyl)phenyl)acetamide], the EC50 was in the range of 500 to 3000 nM.

For the compound `O=C(Cc1ccc(F)cc1F)Nc1nc2ccc(F)cn2c1-c1ccc(F)cc1` [Compound 136, 2-(2,4-difluorophenyl)-N-(6-fluoro-3-(4-fluorophenyl)imidazo[1,2-a]pyridin-2-yl)acetamide], the concentration for a half-maximal effect (EC50) was 500 to 3000 nM.

Turning to `N#Cc1ccc(CC(=O)Nc2nc3ccc(F)cn3c2-c2ccc(F)cc2)cc1` [Compound 137, 2-(4-cyanophenyl)-N-(6-fluoro-3-(4-fluorophenyl)imidazo[1,2-a]pyridin-2-yl)acetamide], the half-maximal effective concentration (EC50) was 500 to 3000 nM.

Take `O=C(CC1CC2CCC1C2)Nc1nc2ccc(F)cn2c1-c1ccc(F)cc1` (centres unmarked) [Compound 138, 2-(bicyclo[2.2.1]heptan-2-yl)-N-(6-fluoro-3-(4-fluorophenyl)imidazo[1,2-a]pyridin-2-yl)acetamide]: the EC50 was less than 500 nM.

Turning to `CC(CC(=O)Nc1nc2ccc(F)cn2c1-c1ccc(F)cc1)CC(C)(C)C` (centres unmarked) [Compound 139, N-(6-fluoro-3-(4-fluorophenyl)imidazo[1,2-a]pyridin-2-yl)-3,5,5-trimethylhexanamide], the concentration giving a half-maximal response (EC50) is less than 500 nM.

As to `O=C(Cc1ccc(F)cc1Cl)Nc1nc2ccc(F)cn2c1-c1ccc(F)cc1` [Compound 140, 2-(2-chloro-4-fluorophenyl)-N-(6-fluoro-3-(4-fluorophenyl)imidazo[1,2-a]pyridin-2-yl)acetamide], the EC50 lay in the range of 3000 to 10000 nM.

Consider `O=C(Cc1c(F)cccc1Cl)Nc1nc2ccc(F)cn2c1-c1ccc(F)cc1` [Compound 141, 2-(2-chloro-6-fluorophenyl)-N-(6-fluoro-3-(4-fluorophenyl)imidazo[1,2-a]pyridin-2-yl)acetamide], for which the concentration giving a half-maximal response (EC50) fell in the range of 3000 to 10000 nM.

As for `Cc1ccc(CC(=O)Nc2nc3ccc(F)cn3c2-c2ccc(F)cc2)cc1` [Compound 143, N-(6-fluoro-3-(4-fluorophenyl)imidazo[1,2-a]pyridin-2-yl)-2-p-tolylacetamide], the half-maximal effective concentration (EC50) is less than 500 nM.

Regarding `CC(CC(=O)Nc1nc2ccc(F)cn2c1-c1ccc(F)cc1)C(F)(F)F` (centres unmarked) [Compound 144, 4,4,4-trifluoro-N-(6-fluoro-3-(4-fluorophenyl)imidazo[1,2-a]pyridin-2-yl)-3-methylbutanamide], the concentration giving a half-maximal response (EC50) fell in the range of 500 to 3000 nM.

Take `O=C(Cc1ccc(Cl)cc1)Nc1nc2ccc(F)cn2c1-c1ccc(F)cc1` [Compound 145, 2-(4-chlorophenyl)-N-(6-fluoro-3-(4-fluorophenyl)imidazo[1,2-a]pyridin-2-yl)acetamide]: the EC50 was in the range of 500 to 3000 nM.

For the compound `O=C(Nc1nc2ccc(F)cn2c1-c1ccc(F)cc1)OCc1ccccc1` [Compound 146, benzyl 6-fluoro-3-(4-fluorophenyl)imidazo[1,2-a]pyridin-2-ylcarbamate], the 50% effective concentration (EC50) is less than 500 nM.

In the case of `CCC(C)CC(=O)Nc1nc2ccc(F)cn2c1-c1ccc(F)cc1` (centres unmarked) [Compound 147, N-(6-fluoro-3-(4-fluorophenyl)imidazo[1,2-a]pyridin-2-yl)-3-methylpentanamide], the EC50 lay in the range of 500 to 3000 nM.

In the case of `O=C(Cc1ccc(F)cc1)Nc1nc2ccc(F)cn2c1-c1cccc(Cl)c1` [Compound 148, N-(3-(3-chlorophenyl)-6-fluoroimidazo[1,2-a]pyridin-2-yl)-2-(4-fluorophenyl)acetamide], the EC50 was less than 500 nM.

In the case of `CC(C)(C)CC(=O)Nc1nc2ccc(F)cn2c1-c1cccc(Cl)c1` [Compound 149, N-(3-(3-chlorophenyl)-6-fluoroimidazo[1,2-a]pyridin-2-yl)-3,3-dimethylbutanamide], the half-maximal effective concentration (EC50) was less than 500 nM.

Take `CC(C)(C)CC(=O)Nc1nc2ccc(F)cn2c1-c1ccc(Cl)cc1` [Compound 150, N-(3-(4-chlorophenyl)-6-fluoroimidazo[1,2-a]pyridin-2-yl)-3,3-dimethylbutanamide]: the 50% effective concentration (EC50) was less than 500 nM.

`C#CCCCC(=O)Nc1nc2ccc(F)cn2c1-c1ccc(F)cc1` [Compound 151, N-(6-fluoro-3-(4-fluorophenyl)imidazo[1,2-a]pyridin-2-yl)hex-5-ynamide]: the concentration for a half-maximal effect (EC50) lay in the range of 500 to 3000 nM.

For `CC(C)(C)CC(=O)Nc1nc2ccc(Br)cn2c1-c1ccc(F)cc1` [Compound 152, N-(6-bromo-3-(4-fluorophenyl)imidazo[1,2-a]pyridin-2-yl)-3,3-dimethyl butanamide], the EC50 is less than 500 nM.

One may read the EC50 as the concentration that produces a half-maximal response.
